Assay results as given in patent US7723523B2, “Tetrahydropyridothiophenes” (4SC AG, priority 2004, dated 2010).

How the values were obtained:
[1] = system: RKO (RKOp27) human colon adenocarcinoma cells; test: Alamar Blue cell viability assay, anti-proliferative/cytotoxic activity on proliferating RKOp27 cells; type: cell-based; settings: absence of Ponasterone A, 72 hours incubation, read-out: IC50 RKO p27 proliferating
Description: The anti-proliferative/cytotoxic activity of the compounds described herein, can be tested on subclones of RKO (RKOp27) human colon adenocarcinoma cells (Schmidt et al., Oncogene 19, 2423-2429; 2000) using the Alamar Blue cell viability assay (described in O'Brien et al. Eur J Biochem 267, 5421-5426, 2000). The compounds are dissolved as 20 mM solutions in dimethylsulfoxide (DMSO) and subsequently diluted in semi-logarithmic steps. DMSO dilutions are further diluted 1:100 into Dulbecco's modified Eagle's medium (DMEM) containing 10% fetal calf serum to a final concentration twice as much as the final concentration in the test. RKO subclones are seeded into 96 well flat bottom plates at a density of 4000 cells per well in a volume of 50 μl per well. 24 hours after seeding 50 μl each of the compound dilutions in DMEM are added into each well of the 96 well plate. Each compound dilution is tested as quadruplicates. Wells containing untreated control cells are filled with 50 μl DMEM containing 1% DMSO. The cells are then incubated with the substances for 72 hours at 37° C. in a humidified atmosphere containing 5% carbon dioxide. To determine the viability of the cells, 10 μl of an Alamar Blue solution (Biosource) are added and the fluorescence is measured at an extinction of 544 nm and an emission of 590 nm. For the calculation of the cell viability the emission value from untreated cells is set as 100% viability and the emission rates of treated cells are set in relation to the values of untreated cells. Viabilities are expressed as % values.
The corresponding IC50 values of the compounds for anti-proliferative/cytotoxic activity are determined from the concentration-effect curves.
Representative IC50 values for anti-proliferation/cytotoxicity determined in the aforementioned assay are described in the table A (1st column), in which the numbers of the compound correspond to the numbers of the examples.

[2] = system: RKO colon adenocarcinoma cells (RKOp27) arrested by expression of ectopic p27Kip1; test: Alamar Blue cell viability assay on RKOp27 cells arrested by Ponasterone A-induced p27Kip1 (cell cycle specific mode of action); type: cell-based; settings: Homo sapiens, RKOp27, 72 h, cells arrested by p27Kip1 induced with 10 μM Ponasterone A, 72 hours incubation, read-out: IC50 RKO p27 arrested
Description: To determine the cell cycle specific mode of action, subclones of RKO colon adenocarcinoma cells (RKOp27 or RKOp21 as described by Schmidt et al. in Oncogene 19, 2423-2429; 2000) are seeded into 96 well flat bottom plates at a density of 16000 cells per well in a volume of 50 μl per well in DMEM growth medium with 10% FCS containing 10 μM Ponasterone A. 24 hours after seeding 50 μl each of the compound dilutions in DMEM are added into each well of the 96 well plate. Each compound dilution is tested as quadruplicates. Wells containing untreated control cells are filled with 50 μl DMEM containing 1% DMSO. The cells are then incubated with the substances for 72 hours at 37° C. in a humidified atmosphere containing 5% carbon dioxide. To determine the viability of the cells, 10 μl of an Alamar Blue solution (Biosource) are added and the fluorescence is measured at an extinction of 544 nm and an emission of 590 nm. For the calculation of the cell viability the emission value from untreated cells is set as 100% viability and the emission rates of treated cells are set in relation to the values of untreated cells. Viabilities are expressed as % values. Viability is compared of proliferating cells grown in the absence of the inducer Ponasterone A, versus viability of cells arrested by the expression of ectopic p27Kip1 induced by Ponasterone A. The data of this experimental setting are summarized in table A (2nd column).

SMILES | IC50 [1] | IC50 [2]
CCOC(=O)N1CCc2c(sc(NC(=O)/C=C/c3c(F)cccc3Cl)c2C#N)C1 [Example 67, 2-[(E)-3-(2-Chloro-6-fluoro-phenyl)-allanoylamino]-cyano-4,7-dihydro-5H-thieno[2,3-c]pyridine-6-carboxylic acid ethyl ester] | ≤ 2 µM | ≥ 100 µM
CCOC(=O)N1CCc2c(sc(NC(=O)/C=C/c3c(F)ccc(F)c3F)c2C#N)C1 [Example 68, 3-Cyano-2-[(E)-3-(2,3,6-trifluoro-phenyl)-allanoylamino]-4,7-dihydro-5H-thieno[2,3-c]pyridine-6-carboxylic acid ethyl ester] | ≤ 2 µM | ≥ 100 µM
CCOC(=O)N1CCc2c(sc(NC(=O)/C=C/c3ccccc3OC(C)=O)c2C#N)C1 [Example 69, 2-[(E)-3-(2-Acetoxy-phenyl)-allanoylamino]-3-cyano-4,7-dihydro-5H-thieno[2,3-c]pyridine-6-carboxylic acid ethyl ester] | ≤ 0.5 µM | ≥ 50 µM
CCOC(=O)N1CCc2c(sc(NC(=O)/C=C/c3ccc(OC)cc3F)c2C#N)C1 [Example 70, 3-Cyano-2-[(E)-3-(2-fluoro-4-methoxy-phenyl)-allanoylamino]β4,7-dihydro-5H-thieno[2,3-c]pyridine-6-carboxylic acid ethyl ester] | ≤ 2 µM | ≥ 100 µM
CCOC(=O)N1CCc2c(sc(NC(=O)/C=C/c3csc4ccccc34)c2C#N)C1 [Example 71, 2-((E)-3-Benzo[b]thiophen-3-yl-allanoylamino)-3-cyano-[4,7-d]hydro-5H-thieno[2,3-c]pyridine-6-carboxylic acid ethyl ester] | ≤ 2 µM | ≥ 100 µM
CCOC(=O)N1CCc2c(sc(NC(=O)/C=C/c3ccc(Cl)s3)c2C#N)C1 [Example 72, 2-[(E)-3-(5-Chloro-thiophen-2-yl)-allanoylamino]-3-cyano-4,7-dihydro-5H-thieno[2,3-c]pyridine-6-carboxylic acid ethyl ester] | ≤ 2 µM | ≥ 100 µM
CCOC(=O)N1CCc2c(sc(NC(=O)/C=C/c3ccccc3-c3ccccc3)c2C#N)C1 [Example 73, 2-((E)-3-Biphenyl-2-yl-allanoylamino)-3-cyano-4,7-dihydro-5H-thieno[2,3-c]pyridine-6-carboxylic acid ethyl ester] | ≤ 2 µM | ≥ 100 µM
CCOC(=O)N1CCc2c(sc(NC(=O)/C=C/c3ccc(C)o3)c2C#N)C1 [Example 74, 3-Cyano-2-[(E)-3-(5-methyl-furan-2-yl)-allanoylamino]-4,7-dihydro-5H-thieno[2,3-c]pyridin-6-carboxylic acid ethyl ester] | ≤ 2 µM | ≥ 100 µM
CCOC(=O)N1CCc2c(sc(NC(=O)/C=C/c3sccc3C)c2C#N)C1 [Example 75, 3-Cyano-2-[(E)-3-(3-methyl-thiophen-2-yl)-allanoylamino]-4,7-dihydro-5H-thieno[2,3-c]pyridine-6-carboxylic acid ethyl ester] | ≤ 2 µM | ≥ 100 µM
CCOC(=O)N1CCc2c(sc(NC(=O)/C=C/c3ccc(C)s3)c2C#N)C1 [Example 76, 3-Cyano-2-[(E)-3-(5-methyl-thiophen-2-yl)-allanoylamino]-4,7-dihydro-5H-thieno[2,3-c]pyridine-6-carboxylic acid ethyl ester] | ≤ 2 µM | ≥ 100 µM
CCOC(=O)N1CCc2c(sc(NC(=O)/C=C/c3ccc(CC)o3)c2C#N)C1 [Example 77, 3-Cyano-2-[(E)-3-(5-ethyl-furan-2-yl)-allanoylamino]-4,7-dihydro-5H-thieno[2,3-c]pyridine-6-carboxylic acid ethyl ester] | ≤ 0.5 µM | ≥ 50 µM
CCOC(=O)N1CCc2c(sc(NC(=O)/C=C/c3ccc(Cl)o3)c2C#N)C1 [Example 78, 2-[(E)-3-(5-Chloro-furan-2-yl)-allanoylamino]-3-cyano-4,7-dihydro-5H-thieno[2,3-c]pyridine-6-carboxylic acid ethyl ester] | ≤ 2 µM | ≥ 100 µM
CCOC(=O)N1CCc2c(sc(NC(=O)/C=C/c3cc(F)ccc3C)c2C#N)C1 [Example 79, 3-Cyano-2-[(E)-3-(5-fluoro-2-methyl-phenyl)-allanoylamino]-4,7-dihydro-5H-thieno[2,3-c]pyridine-6-carboxylic acid ethyl ester] | ≤ 2 µM | ≥ 100 µM
CCOC(=O)N1CCc2c(sc(NC(=O)/C=C/c3cccc(F)c3C)c2C#N)C1 [Example 80, 3-Cyano-2-[(E)-3-(3-fluoro-2-methyl-phenyl)-allanoylamino]-4,7-dihydro-5H-thieno[2,3-c]pyridine-6-carboxylic acid ethyl ester] | ≤ 2 µM | ≥ 100 µM
CCOC(=O)N1CCc2c(sc(NC(=O)/C=C/c3ccccc3CC)c2C#N)C1 [Example 82, 3-Cyano-2-[(E)-3-(2-ethyl-phenyl)-allanoylamino]-4,7-dihydro-5H-thieno[2,3-c]pyridine-6-carboxylic acid ethyl ester] | ≤ 2 µM | ≥ 100 µM
CCOC(=O)N1CCc2c(sc(NC(=O)/C=C/c3ccccc3C#N)c2C#N)C1 [Example 83, 3-Cyano-2-[(E)-3-(2-cyano-phenyl)-allanoylamino]-4,7-dihydro-5H-thieno[2,3-c]pyridine-6-carboxylic acid ethyl ester] | ≤ 2 µM | ≥ 100 µM
CCOC(=O)N1CCc2c(sc(NC(=O)/C=C/c3cc4ccccc4o3)c2C#N)C1 [Example 84, 2-[(E)-3-Benzofuran-2-yl-allanoylamino]-3-cyano-4,7-dihydro-5H-thieno[2,3-c]pyridine-6-carboxylic acid ethyl ester] | ≤ 0.5 µM | ≥ 50 µM
CCOC(=O)N1CCc2c(sc(NC(=O)/C=C/c3ccc(-c4ccccc4)s3)c2C#N)C1 [Example 85, 3-Cyano-2-[(E)-3-(5-phenyl-thiophen-2-yl)-allanoylamino]-4,7-dihydro-5H-thieno[2,3-c]pyridine-6-carboxylic acid ethyl ester] | ≤ 2 µM | ≥ 100 µM
CCOC(=O)N1CCc2c(sc(NC(=O)/C=C/c3cccc(C)c3C)c2C#N)C1 [Example 86, 3-Cyano-2-[(E)-3-(2,3-dimethyl-phenyl)-allanoylamino]-4,7-dihydro-5H-thieno[2,3-c]pyridine-6-carboxylic acid ethyl ester] | ≤ 2 µM | ≥ 100 µM
CCOC(=O)N1CCc2c(sc(NC(=O)/C=C/c3ccccc3N3CCOCC3)c2C#N)C1 [Example 88, 3-Cyano-2-[(E)-3-(2-morpholin-4-yl-phenyl)-allanoylamino]-4,7-dihydro-5H-thieno[2,3-c]pyridine-6-carboxylic acid ethyl ester] | ≤ 0.5 µM | ≥ 50 µM
CCOC(=O)N1CCc2c(sc(NC(=O)/C=C/c3ccc(F)cc3C)c2C#N)C1 [Example 89, 3-Cyano-2-[(E)-3-(4-fluoro-2-methyl-phenyl)-allanoylamino]-4,7-dihydro-5H-thieno[2,3-c]pyridine-6-carboxylic acid ethyl ester] | ≤ 2 µM | ≥ 100 µM
CCOC(=O)N1CCc2c(sc(NC(=O)/C=C/c3nn(C)cc3Cl)c2C#N)C1 [Example 90, 2-[(E)-3-(4-Chloro-1-methyl-1H-pyrazol-3-yl)-allanoylamino]-3-cyano-4,7-dihydro-5H-thieno[2,3-c]pyridine-6-carboxylic acid ethyl ester] | ≤ 2 µM | ≥ 100 µM
CCOC(=O)N1CCc2c(sc(NC(=O)/C=C/c3ccc(-c4ccccc4)o3)c2C#N)C1 [Example 91, 3-Cyano-2-[(E)-3-(5-phenyl-furan-2-yl)-allanoylamino]-4,7-dihydro-5H-thieno[2,3-c]pyridine-6-carboxylic acid ethyl ester] | ≤ 2 µM | ≥ 100 µM
